{"source": "patent US5877147A", "about": "“Compounds for medicinal use” (Peptech (UK) Limited, priority 1993, dated 1999)", "key": {"[1]": {"tested_on": "Human Papilloma Virus (HPV) infection of the uterine cervix", "method": "(§1) The study group consisted of 50 women between 20 and 30 years of age (mean 26.7) with HPV of the cervix. The duration of the disease varied from 1 to 3.5 years. […] To control for variation in Ig content of cervical secretions during the menstrual cycle, treatment was commenced 8-10 days after the beginning of the period.\n(§2) Follow up studies on the clinical progression of the HPV infection were performed"}, "[2]": {"tested_on": "Ig in saliva and genital tract secretions", "details": "3 days after 1 mg GMDP orally x 10 days", "excerpt": "as §1\n(§3) A number of immunological parameters were monitored before the beginning of treatment; immunoglobulin (Ig) in serum (radial immunodiffusion), Ig in saliva and genital tract secretions (ELISA), subpopulations of immune cells (immunocytofluorimetry).\nas §2\n(§4) Control values for immunological parameters were also taken from a group of women free of HPV infection. Their age range was 20 to 30 years with a mean of 25.6."}, "[3]": {"tested_on": "immunoglobulin (Ig) in serum", "details": "3 days after 1 mg GMDP orally x 10 days", "excerpt": "as §1, §3, §2, §4"}, "[4]": {"tested_on": "subpopulations of immune cells", "details": "blood, 3 days after 1 mg GMDP orally x 10 days", "excerpt": "as §1, §3, §2, §4"}, "[5]": {"tested_on": "IgA", "experiment": "IgA levels in treated patients (mucosal immunity)", "assay_type": "in vivo, human", "details": "in words"}, "[6]": {"tested_on": "mice", "details": "cited from earlier work"}, "[7]": {"details": "that of MDP = 100%; cited from earlier work"}, "[8]": {"tested_on": "lung and peritoneal macrophages", "details": "orally administered, non-liposome encapsulated; cited from earlier work"}, "[9]": {"tested_on": "melanoma metastases", "details": "orally administered, non-liposome encapsulated; cited from earlier work"}}}
{"compound": "CC(=O)NC1C(OC2C(CO)OC(O)C(NC(C)=O)C2OC(C)C(=O)NC(C)C(=O)NC(CCC(=O)O)C(N)=O)OC(CO)C(O)C1O", "note": "[GMDP, N-acetyl-D-glucosaminyl-(β1-4)-N-acetylmuramyl-L-alanyl-D-isoglutamine]", "values": [{"measurement": "Recurrence of HPV, number of patients", "setting": "[1]; 30 in group, 1 mg GMDP orally daily for 10 days, adjunct therapy, placebo 7 of 20", "result": 3}, {"measurement": "Recurrence of HPV, % of group", "setting": "[1]; 30 in group, 1 mg GMDP orally daily for 10 days, adjunct therapy, placebo 35%", "result": 10, "unit": "%"}, {"measurement": "Full Cure, number of patients", "setting": "[1]; 30 in group, 1 mg GMDP orally daily for 10 days, adjunct to antibiotics, laser and cryotherapy, placebo 13 of 20", "result": 27}, {"measurement": "Full Cure, % of group", "setting": "[1]; 30 in group, 1 mg GMDP orally daily for 10 days, adjunct to laser and cryotherapy, placebo 65%", "result": 90, "unit": "%"}, {"measurement": "rate of cure versus placebo group", "setting": "[1]; GMDP as adjunct to laser and cryotherapy, in words", "result": "increase in the rate of cure"}, {"measurement": "Mucus of uterine cervix IgD, after treatment", "setting": "[2]; before 0.326 ± 0.16, spread 0.17", "result": 0.315, "unit": "mg/dL"}, {"measurement": "Saliva IgM, after treatment", "setting": "[2]; before 3.17 ± 1.05, spread 1.11", "result": 1.65, "unit": "mg/dL"}, {"measurement": "Mucus of uterine cervix IgM, after treatment", "setting": "[2]; before 3.18 ± 2.21, spread 1.65", "result": 1.8, "unit": "mg/dL"}, {"measurement": "Mucus of uterine cervix IgG, after treatment", "setting": "[2]; before 9.57 ± 2.19, spread 3.01", "result": 12.01, "unit": "mg/dL"}, {"measurement": "Saliva IgA, after treatment", "setting": "[2]; before 11.45 ± 3.48, spread 2.98", "result": 13.16, "unit": "mg/dL"}, {"measurement": "Saliva IgG, after treatment", "setting": "[2]; before 16.19 ± 4.01, spread 4.88", "result": 15.05, "unit": "mg/dL"}, {"measurement": "Saliva sIgA, after treatment", "setting": "[2]; before 26.53 ± 5.23, spread 4.96", "result": 25.46, "unit": "mg/dL"}, {"measurement": "Serum IgM, after treatment", "setting": "[3]; before 123.8 ± 10.4, spread 11.2, p<0.01 vs before", "result": 160.8, "unit": "mg/dL"}, {"measurement": "Serum IgA, after treatment", "setting": "[3]; before 216.0 ± 16.8, spread 18.2", "result": 228.7, "unit": "mg/dL"}, {"measurement": "Serum IgG, after treatment", "setting": "[3]; before 1424 ± 48, spread 51, p<0.01 vs before", "result": 1258, "unit": "mg/dL"}, {"measurement": "B-cells %, after treatment", "setting": "[4]; before 5.30 ± 0.8, spread 1.07", "result": 5.08, "unit": "%"}, {"measurement": "CD16 +ve %, after treatment", "setting": "[4]; before 16.3 ± 2.1, spread 2.3", "result": 13.1, "unit": "%"}, {"measurement": "CD8 +ve %, after treatment", "setting": "[4]; before 24.2 ± 2.87, spread 3.17", "result": 20.3, "unit": "%"}, {"measurement": "Lymphocytes %, after treatment", "setting": "[4]; before 34.11 ± 3.16, spread 2.68", "result": 35.77, "unit": "%"}, {"measurement": "CD4 +ve %, after treatment", "setting": "[4]; before 34.6 ± 3.1, spread 3.8", "result": 41.8, "unit": "%"}, {"measurement": "CD3 ve %, after treatment", "setting": "[4]; before 55.8 ± 4.1, spread 3.6", "result": 59.12, "unit": "%"}, {"measurement": "B-cells absolute, after treatment", "setting": "[4]; before 80.1 ± 12.1, spread 21.7", "result": 103.8}, {"measurement": "CD16 +ve absolute, after treatment", "setting": "[4]; before 246.3 ± 31.7, spread 47.1", "result": 268.1}, {"measurement": "CD8 +ve absolute, after treatment", "setting": "[4]; before 365.7 ± 43.4, spread 64.9", "result": 415.3}, {"measurement": "levels of IgA in treated patients", "setting": "[5]", "result": "especially high"}, {"measurement": "LD50 (acute toxicity)", "setting": "[6]", "result": 7, "unit": "g/kg"}, {"measurement": "pyrogenicity relative to MDP", "setting": "[7]", "result": "about 50%"}]}
{"compound": "CCCCCCCCCCCCCCCC(=O)OC[C@H](COP(=O)([O-])OCCNC(=O)[C@H](C)NC(=O)CC[C@@H](NC(=O)[C@H](C)NC(=O)[C@@H](C)O[C@H]1[C@H](O)[C@@H](CO)OC(O)[C@@H]1NC(C)=O)C(N)=O)OC(=O)CCCCCCCCCCCCCCC.O.[Na+]", "note": "(stereo partly drawn) [MTP-PE, N-acetyl-muramyl-L-alanyl-D-isoglutaminyl-L-alanyl-2-(1',2'-dipalmitoyl-sn-glycero-3'-hydroxy-phosphoryloxy)ethylamide, monosodium]", "values": [{"measurement": "tumouricidal activity in lung and peritoneal macrophages", "setting": "[8]", "result": "produced tumouricidal activity"}, {"measurement": "eradicating well established melanoma metastases", "setting": "[9]", "result": "not effective"}, {"measurement": "inhibiting lung and lymph node metastasis", "setting": "[9]", "result": "effective"}]}
{"compound": "N-acetyl-D-glucosaminyl-(β1-4)-N-acetylmuramyl-L-alanyl-D-glutamic acid [GMDP-A]", "values": [{"measurement": "levels of IgA in treated patients", "setting": "[5]", "result": "especially high"}]}
